Reference: patent publication US20040229960A1, “Compositions and methods of administering tubulin binding agents for the treatment of ocular diseases” (priority 2001, published 2004)

How the values were obtained:
pathological myopia = experiment: Human patient with pathological myopia, phase I/II study; format: in vivo
Text: A person was originally examined on Day One after complaining of visual obstructions in their left eye. The patient had received ocular lens implants in both eyes approximately 2 years earlier to correct for myopia. The patient was diagnosed with pathological myopia (also known as proliferative myopathy and myopic macular degeneration) and received a total of four treatments of Photodynamic Therapy (PDT, Visudyne™) in the left eye over the course of the next 8 months. […] In June 2003, the patient was diagnosed with pathological myopia in the right eye as well.
About 3 months later, the patient was enrolled in an open-label, pilot (phase I/II), dose-escalation safety and tolerability study of CA4P. At that time, the patient's best corrected visual acuity was 20/50-3 in the left eye and 20/25-3 in the right eye, as determined by a Snellen back-lit visual acuity test. […] On Day One of the study, the patient began treatment with an intravenous infusion of CA4P (free acid), at a dose of 27 mg/m2, over a 10 minute period. […] The patient received second, third, and fourth infusions of CA4P on Days 8, 15, and 22 of the study, with a maintenance of visual acuity and no active leakage in either eye.

[1] = Intraocular irritation following intravitreal injection; format: in vivo, rabbits; conditions: for Mean cell counts in the vitreous fluid (white blood cells): 0.2 ml intravitreal, about 48 h, <=200 acceptable
Description: The test article, CA4P, was evaluated for the potential to cause intraocular irritation following intravitreal injection in rabbits. Following general anesthesia, a 0.2 ml dose of CA4P was administered to the right eyes of eight rabbits. A 0.2 ml dose of 0.9% sodium chloride USP solution was administered to the left eyes of the rabbits to serve as a negative control. Four different concentrations of CA4P were tested. Each of the four concentrations (0.1 mg/ml, 1.0 mg/ml, 10 mg/ml and 100 mg/ml) were dosed to the right eyes of two rabbits. Approximately 48 hours after the treatment, the eyes were examined with a biomicroscopic slit-lamp and an indirect ophthalmoscope. The scores were recorded and the rabbits were euthanized. Immediately after euthanasia, samples of vitreous fluid were drawn and white blood cell counts were determined with a hemacytometer. Counts less than or equal to 200 cells/mm^3 were considered to be acceptable.

[2] = Biodistribution of 14C-CA4P following subconjunctival injection; format: in vivo, New Zealand rabbits
Description: ^14C-CA4P (OXiGENE Inc., Watertown, Mass.) was resuspended in 100 ul volume of saline solution and injected with a 30 G needle into the right eyes of anesthesized male New Zealand rabbits (4 months old, 1.8-2.5 kg, n=3 per sample). Three different concentrations of ^14C-CA4P were tested (1, 10, 100 mg/ml) corresponding to doses of 1, 5, and 5 uCi of applied radioactivity respectively. A blank control group was also included. Rabbits were anaesthetized at 1, 6, 24, and 48 hours for blood sampling. After blood collection, the animals were euthanized by Phenobarbital injection and the treated right eyes were removed from all test animals. Ocular tissue samples were dissected from the cornea, aqueous humor, vitreous humor, choroid, or retina, placed in 20-mi glass scintillation vials, vortexed, and incubated for 24 hrs with 500 ul digesting fluid. Plasma was separated from whole blood by centrifugation (1,800 g for 10 minutes). Both ocular tissue samples and plasma were incubated at room temperature with 16 ml of Hionic Fluor™ scintillation fluid for a period of 24 hours prior to radioactivity counting. Each sample was counted for 5 minutes in a Betamatic V counter (Bio-Tek Kontron Instruments, St Quentin en Yvelines, France). The conversion of counts per minute (“cpm”) into disintegrations per minute (“dpm”) was performed automatically by the beta-counter, using calibration curves obtained from ^14C-standards and quenching curves from the respective blank matrices spiked with ^14C-standards. The concentration of drug was determined according to nanogram equivalents of CA4P (ng-Eq/g of tissue) which was calculated from the measured dpm value, the weight of the tissue specimen, and the specific activity of the drug (0.37 mCi/mg), followed by subtraction of the corresponding background value from control eye tissue. A tissue concentration of 1 uM CA4P is equal to […] tissue.
Subconjuctival injections were administered at doses of 0.1, 1, 10, and 100 mg/ml. ^14C-CA4P solutions were formulated with 0.24% 10N KOH and 0.01% Benzalkonium chloride and injected in a volume of 100 ul. Animals were treated at an applied dose of 5 uCi with a single subconjunctival injection in right eyes. After delivery, the eye was gently held closed for 2-5 seconds.

## COc1ccc(/C=C\c2cc(OC)c(OC)c(OC)c2)cc1OP(=O)([O-])[O-].[Na+].[Na+] [CA4P, combretastatin A4 disodium phosphate]
Pathological myopia; 27 mg/m2 i.v. weekly
  Improvement of Snellen visual acuity, left eye: improved by five lines to 20/20 vision
Pathological myopia; Day 8 after 27 mg/m2 i.v. infusion, active leakage in both eyes at baseline
  Leakage in fluorescein angiography of either eye: No active leakage was observed
[1]; 0.1 mg/ml
  Mean cell counts in the vitreous fluid (white blood cells): 9 cells/mm^3
[1]; 1 mg/ml intravitreal, 2 rabbits
  Irritation on slit-lamp and ophthalmoscope examination: evidence of irritation was noted in one animal
[1]; 1 mg/ml
  Mean cell counts in the vitreous fluid (white blood cells): 962 cells/mm^3
[1]; 10 mg/ml
  Mean cell counts in the vitreous fluid (white blood cells): 10 cells/mg^3
[1]; 100 mg/ml intravitreal, both animals
  Irritation and inflammation, ophthalmic exams and vitreous white blood cells: pronounced irritation and inflammation
[1]; 100 mg/ml
  Mean cell counts in the vitreous fluid (white blood cells): 409 cells/mm^3
[1]; Intravitreal, <1 mg
  Irritation (Draize Scores): No Irritation
[1]; lower dose levels 0.1, 1.0 and 10 mg/ml intravitreal
  Irritation and inflammation, ophthalmic exams and vitreous white blood cells: no clear evidence of irritation or inflammation
[2]; choroid, 0.1 mg/ml subconjunctival
  Cmax: 2300 nM
[2]; choroid, 1 mg/ml subconjunctival
  Cmax: 1900 nM
[2]; choroid, 10 mg/ml subconjunctival
  Cmax: 188000 nM
[2]; choroid, 100 mg/ml subconjunctival
  Cmax: 908000 nM
[2]; cornea, retina and choroid, 100, 10 and 1 mg/ml, subconjunctival
  Concentration of drug delivered: > 1000 nM
[2]; cornea, 0.1 mg/ml subconjunctival
  Cmax: 1500 nM
[2]; cornea, 1 mg/ml subconjunctival
  Cmax: 13000 nM
[2]; cornea, 10 mg/ml subconjunctival
  Cmax: 143000 nM
[2]; cornea, 100 mg/ml subconjunctival
  Cmax: 761000 nM
[2]; plasma, 0.1 mg/ml subconjunctival
  Cmax: 17 nM
[2]; plasma, 1 mg/ml subconjunctival
  Cmax: 25 nM
[2]; plasma, 10 mg/ml subconjunctival
  Cmax: 900 nM
[2]; plasma, 100 mg/ml subconjunctival
  Cmax: 8000 nM
[2]; retina, 0.1 mg/ml subconjunctival
  Cmax: 130 nM
[2]; retina, 1 mg/ml subconjunctival
  Cmax: 1700 nM
[2]; retina, 10 mg/ml subconjunctival
  Cmax: 39600 nM
[2]; retina, 100 mg/ml subconjunctival
  Cmax: 174000 nM
[2]; subconjunctival injection
  Time of highest concentrations of drug in the eye: within the first hour
[2]; vitreous, 0.1 mg/ml subconjunctival
  Cmax: 5 nM
[2]; vitreous, 1 mg/ml subconjunctival
  Cmax: 20 nM
[2]; vitreous, 10 mg/ml subconjunctival
  Cmax: 2100 nM
[2]; vitreous, 100 mg/ml subconjunctival
  Cmax: 15700 nM
